Legend:
[1] = molecular target: T1, HMIT triple mutant (H+/myo-inositol transporter) (Rattus norvegicus, UniProt Q921A2); experiment: whole-cell patch-clamp, inositol-evoked inward current; assay type: cell-based; details: extracellular pH 5.2; room temperature; Hill slope 1.0; transiently transfected HEK293/HEK293T cells
T1 construct: gene Slc2a13; stop codon deleted, C-terminal V5-His; pcDNA3.1/V5-His-TOPO; transient in HEK293/HEK293T cells
T1 sequence (Q921A2 1-637): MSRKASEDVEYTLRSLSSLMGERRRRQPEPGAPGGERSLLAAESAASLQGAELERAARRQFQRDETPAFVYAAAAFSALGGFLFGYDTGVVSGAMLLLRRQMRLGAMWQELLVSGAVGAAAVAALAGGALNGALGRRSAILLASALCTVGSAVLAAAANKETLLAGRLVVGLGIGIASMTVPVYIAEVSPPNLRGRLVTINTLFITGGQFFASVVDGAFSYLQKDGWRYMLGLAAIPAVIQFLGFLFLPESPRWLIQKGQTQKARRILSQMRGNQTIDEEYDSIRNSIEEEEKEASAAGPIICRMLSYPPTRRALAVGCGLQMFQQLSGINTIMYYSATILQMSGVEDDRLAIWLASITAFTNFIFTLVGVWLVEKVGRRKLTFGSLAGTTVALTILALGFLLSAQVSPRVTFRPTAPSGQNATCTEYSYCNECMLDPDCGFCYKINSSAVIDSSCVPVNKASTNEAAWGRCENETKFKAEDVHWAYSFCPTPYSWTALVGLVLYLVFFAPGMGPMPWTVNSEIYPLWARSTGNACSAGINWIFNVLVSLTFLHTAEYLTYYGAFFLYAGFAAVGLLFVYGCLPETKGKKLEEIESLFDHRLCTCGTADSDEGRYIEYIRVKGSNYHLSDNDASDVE

[2] = molecular target: T1, HMIT triple mutant (H+/myo-inositol transporter); experiment: [3H]-myo-inositol uptake in HEK293T cells; assay type: cell-based; details: pH 6.0; 37 °C pre-incubation 10 min; 2 min uptake; non-selective inhibitor

Structure (SMILES)	EC50 [1] [mM]	% inhibition at 1 mM [2] [%]
O[C@H]1[C@H](O)[C@@H](O)[C@H](O)[C@@H](O)[C@H]1O [myo-inositol]	2.7	–
O=C(CCc1ccc(O)cc1)c1c(O)cc(O)cc1O[C@@H]1O[C@H](CO)[C@@H](O)[C@H](O)[C@H]1O [phloridzin]	–	53 ± 1.4
